Assay [1] can be described thus: Inhibition of TAU derived synthetic hexapeptide AcPHF6 fibril formation at compound:AcPHF6 ratio of 1:1 to 1:64 incubated for 60 mins by thioflavin S fluorescence assay.
Assay [2] is described as follows: Binding affinity to thioflavin S at compound:AcPHF6 ratio of 1:1 incubated for 120 mins by fluorescence assay.
Assay [3] can be described thus: Binding affinity to thioflavin S at compound:AcPHF6 ratio of 1:1 to 1:64 incubated for 120 mins by fluorescence assay.
Assay [4] in a line: Inhibition of TAU derived synthetic hexapeptide AcPHF6 fibril formation incubated for 120 mins by thioflavin S fluorescence assay.

Calls of active or inactive are those of the source. The calls are words filed in the database; no cut-off is given here. Where a SMILES comes first, the peptide text is derived from it. Bridges are numbered along the chain shown (N, C = ends).

In the case of `CC[C@H](C)[C@@H]1NC(=O)[C@H](CCC(N)=O)NC(=O)[C@H](C(C)C)NC(=O)CNC(=O)[C@H](CC(=O)O)NC(=O)[C@@H]2CCCN2C(=O)[C@H](C(C)C)NC(=O)[C@H](C)NC(=O)[C@H](Cc2ccccc2)NC(=O)[C@@H]2CSSC[C@H](NC1=O)C(=O)N[C@@H](Cc1ccc(O)cc1)C(=O)N[C@@H](CCCCN)C(=O)N[C@@H](CO)C(=O)N[C@@H]([C@@H](C)CC)C(=O)N1CCC[C@H]1C(=O)N1CCC[C@H]1C(=O)N[C@@H]([C@@H](C)CC)C(=O)N2` (cyclo(AVPDGVQICYKSIPPICF); disulfide 9-17), the inhibition result in assay [1] was “Active”. For the same compound, in assay [2], the outcome was Active.
On to `CC[C@H](C)[C@@H]1NC(=O)[C@@H]2CCCN2C(=O)[C@@H]2CCCN2C(=O)[C@H]([C@@H](C)CC)NC(=O)[C@H](CO)NC(=O)[C@H](CCCCN)NC(=O)[C@H]([C@@H](C)O)NC(=O)[C@@H]2CSSC[C@H](NC1=O)C(=O)N[C@@H](Cc1ccccc1)C(=O)N1CCC[C@H]1C(=O)N[C@@H](CC(=O)O)C(=O)NCC(=O)N[C@@H](CCCNC(=N)N)C(=O)N2`, for which, in assay [1], the inhibition result was “Active”. The result in assay [3] was inactive. Moreover, the inhibition result in assay [4] was “Dose-dependent effect”.

For the origin of these results see ChEMBL document CHEMBL3774331, “Inhibition of tau aggregation using a naturally-occurring cyclic peptide scaffold” (Eur J Med Chem, 2016).
